From patent publication US4644010A, “Certain β-oxo-α-carbamoylpyrrolepropionitriles” (Ciba-Geigy Corporation, priority 1984, dated 1987) come the findings set out here.

Molecules are shown by their SMILES.

In assay [1] the test system is BCG-immunized adjuvant arthritic rat. Kind of assay: skin test (delayed hypersensitivity) in the BCG-immunized adjuvant arthritic rat. It counts as in vivo. To be noted: 25 mg/kg/p.o. As for the experimental part:
The enhancement of cell-mediated immunity is determined in vivo in the BCG-immunized arthritic rat by measurement of delayed hypersensitivity reaction essentially as described in Current Therapeutic Research 30, S34 (1981).
Charles River male rats weighing 325-400 g are sensitized by intradermal injection into the right hind foot pad with […] per animal of Mycobacterium tuberculosis (Difco) emulsified in Freund's incomplete adjuvant. Animals are immunized with 0.1 ml of BCG vaccine intradermally on day 18 after adjuvant injection. Corn starch suspensions of drugs are administered orally. Control animals are dosed with cornstarch vehicle only. All animals are skin-tested with 10 μg PPD intradermally on day 29 to elicit skin reactions. The diameter of the erythema and induration reaction is measured 24 hours after antigen challenge. An increase in the diameter of the erythema is indicative of enhanced cellular immunity.

Assay [2] relates to established adjuvant arthritis in the rat. Briefly: established adjuvant arthritis test. Conditions: dose ranging from about 5 to 25 mg/kg/p.o. It counts as in vivo. The protocol:
The established adjuvant arthritis test for anti-arthritic activity is performed essentially as described in Proc. Soc. Biol. Med. 137, 506 (1971).

The test system of assay [3] is proteoglycan matrix of bovine nasal septum cartilage. Kind of assay: cartilage-synovium co-culture model of cartilage matrix degradation. In kind it is cell-based. Conditions: concentration range of about 10^-7 M to 10^-5 M. The protocol:
The compounds of the invention are also active in the cartilage-synovium co-culture model of cartilage matrix degradation, indicative of their effectiveness in osteoarthritis. The screen is carried out as follows:
The proteoglycan matrix of bovine nasal septum cartilage is labeled into vitro by incorporation of ^35 S into glycosaminoglycan. Cartilage slices are incubated overnight in a sulfate-free medium containing ^35 S-sodium sulfate. ^35 S-Labeled cartilage slices are co-cultured with normal synovium explants in multiwell tissue culture plates. After 4 days incubation a 100 μl aliquot of medium is counted. Cartilage slices are hydrolyzed and a 100 μl aliquot of cartilage hydrolysate is counted. The percent ^35 S released into the medium is determined and the percent of inhibition of matrix degradation is calculated.

The test system of assay [4] is phenyl-p-benzoquinone-induced writhing in mice. Briefly: phenyl-p-benzoquinone-induced writhing test for analgesic activity. In kind it is in vivo. Conditions: mouse, dose ranging from about 1 to 30 mg/kg p.o. As for the experimental part:
The phenyl-p-benzoquinone-induced writhing test for analgesic activity, described in J. Pharmacol. Exp. Therap. 125, 237 (1959) is performed in mice as follows:
Mice previously fasted overnight are treated orally with the test compound dissolved in 0.75% methylcellulose at doses of 1 to 50 mg/kg, or with the vehicle alone, 55 minutes before the induction of the writhing syndrome by i.p. injection of 0.25 ml of a suspension of phenyl-p-benzoquinone (0.03%) in tragacanth (0.4%).
Starting 5 minutes, thereafter, the number of writhing movements provoked by the irritant are counted over an observation period of 10 minutes. The analgesic antinociceptive) ED50 of the test compound is the dose which reduces the mean frequency of writhing movements by 50% in comparison to the controls.
On the technique in general: An intraperitoneal irritant provokes the stretching counted in writhing tests.

Consider `N#CC(C(=O)Nc1ccccc1)C(=O)c1ccc[nH]1` (stereo not drawn) [Example 1, β-oxo-α-(phenylcarbamoyl)-β-(2-pyrrolyl)-propionitrile], for which the “activity in the skin test (immunopotentiating activity)” value in assay [1] was “significant activity”. Also, the “activity in the established adjuvant arthritis test” value in assay [2] was “active”. The “inhibition of cartilage matrix degradation in vitro” value (“inhibition” below) in assay [3] is given as “inhibit cartilage matrix degradation”. Besides, the “activity in the phenyl-p-benzoquinone test for analgesia” value in assay [4] is given as “active”.

As for `N#CC(C(=O)Nc1ccc(Cl)cc1)C(=O)c1ccc[nH]1` (stereo not drawn) [Example 2, β-oxo-α-(4-chlorophenylcarbamoyl)-β-(2-pyrrolyl)propionitrile], the “activity in the skin test (immunopotentiating activity)” value in assay [1] is reported as “significant activity”. In addition, the “activity in the established adjuvant arthritis test” value in assay [2] is reported as “active”. Also, the “inhibition” value in assay [3] is on record as “inhibit cartilage matrix degradation”. Further, the “activity in the phenyl-p-benzoquinone test for analgesia” value in assay [4] is reported as “active”.

Regarding `N#CC(C(=O)Nc1ccc(F)cc1F)C(=O)c1ccc[nH]1` (stereo not drawn) [Example 3, β-oxo-α-(2,4-difluorophenylcarbamoyl)-β-(2-pyrrolyl)-propionitrile], in assay [2], the “activity in the established adjuvant arthritis test” value was “active”. Also, the “inhibition” value in assay [3] is listed as “inhibit cartilage matrix degradation”. In assay [4], the “activity in the phenyl-p-benzoquinone test for analgesia” value is given as “active”.

`N#CC(C(=O)Nc1ccc(F)cc1)C(=O)c1ccc[nH]1` (stereo not drawn) [Example 5, β-oxo-α-(4-fluorohenylcarbamoyl)-β-(2-pyrrolyl)-propionitrile]: the “activity in the established adjuvant arthritis test” value in assay [2] is reported as “active”. The “activity in the phenyl-p-benzoquinone test for analgesia” value in assay [4] was “active”.
